Drawing on article PMC11697029 (Nature Communications, 2025), this text covers Kd for 3 compounds.

Each structure is given as a SMILES string.

What is called Kd is a measure of binding affinity in units of concentration.

The experiment addresses T1, RmlT (Listeria monocytogenes, UniProt Q8Y838).
T1 sequence (Q8Y838 1-623): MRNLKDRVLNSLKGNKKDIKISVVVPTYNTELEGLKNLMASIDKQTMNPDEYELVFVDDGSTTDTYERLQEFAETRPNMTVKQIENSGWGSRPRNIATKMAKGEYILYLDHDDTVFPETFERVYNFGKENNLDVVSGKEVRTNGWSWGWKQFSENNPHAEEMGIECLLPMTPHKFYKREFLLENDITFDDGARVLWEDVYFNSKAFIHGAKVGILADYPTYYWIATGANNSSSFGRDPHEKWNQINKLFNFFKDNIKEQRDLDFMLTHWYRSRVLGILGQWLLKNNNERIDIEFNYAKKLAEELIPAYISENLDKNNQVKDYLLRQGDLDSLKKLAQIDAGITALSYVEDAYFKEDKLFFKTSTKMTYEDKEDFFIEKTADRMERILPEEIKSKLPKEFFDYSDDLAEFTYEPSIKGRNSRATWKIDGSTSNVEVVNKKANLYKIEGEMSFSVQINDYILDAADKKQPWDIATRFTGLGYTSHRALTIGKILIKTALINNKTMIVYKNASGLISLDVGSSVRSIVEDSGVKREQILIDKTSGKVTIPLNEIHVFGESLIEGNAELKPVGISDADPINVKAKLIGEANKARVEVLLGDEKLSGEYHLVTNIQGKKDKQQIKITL
The experiment in a line: isothermal titration calorimetry. The experiment is classed as binding. In general terms: ITC needs no label: the signal is the heat of the interaction.

`Cc1cn([C@H]2C[C@H](O)[C@@H](COP(=O)(O)OP(=O)(O)O[C@H]3O[C@@H](C)[C@H](O)[C@@H](O)[C@H]3O)O2)c(=O)[nH]c1=O` [TDP-rhamnose] displayed a dissociation constant Kd of roughly 13 µM.

Turning to `Cc1cn([C@H]2C[C@H](O)[C@@H](COP(=O)(O)OP(=O)(O)O[C@H]3O[C@H](CO)[C@@H](O)[C@H](O)[C@H]3O)O2)c(=O)[nH]c1=O` [TDP-glucose], the Kd was roughly 10 µM.

`Cc1cn([C@H]2C[C@H](O)[C@@H](COP(=O)(O)OP(=O)(O)O)O2)c(=O)[nH]c1=O` [TDP] gave a Kd of roughly 50 µM.
